Data: US20210254006A1, “METHODS OF CULTURING AND/OR EXPANDING STEM CELLS AND/OR LINEAGE COMMITTED PROGENITOR CELLS USING LACTAM COMPOUNDS” (IDEAYA BIOSCIENCES, INC., priority 2018, published 2021)

Columns and labels:
[1] = tested on: human CD34+ hematopoietic stem cells (HSC); test: Hematopoietic stem cell expansion, CD34+ cells by flow cytometry after 12-day culture; type: cell-based
Protocol: The ability of compounds of formula (I) to facilitate hematopoietic stem cell expansion was determined by testing 1-methyl-7-(2-methyl-4-(6-(trifluoromethyl)pyrido[3,2-d]pyrimidin-2-yl)phenyl)-6,7-dihydro-1H-pyrazolo[3,4-f][1,4]oxazepin-8(5H)-one (compound 1) and 3-methyl-5-(2-methyl-4-(6-(trifluoromethyl)quinazolin-2-yl)phenyl)-6,7-dihydropyrazolo[1,5-a]pyrazin-4(5H)-one (compound 2) as follows.
Isolated human CD34^+ hematopoietic stem cells (HSC) were obtained from AllCells (Alameda, Calif., USA). 5,000 HSC per well were cultivated in 100 μL HSC expansion media StemSpan SFEM (StemCell Technologies; Vancouver, BC, Canada) containing 1× antibiotics (Life Technologies, Carlsbad, Calif., USA), 100 ng/mL thrombopoietin, 100 ng/mL IL-6, 100 ng/mL Flt3 ligand and 100 ng/mL stem cell factor (all R&D Systems, Minneapolis, Minn., USA) in a flat bottom 96 well tissue culture plate. 100 μL of 3-fold serial diluted compound 1 or 2 (final concentration range 0.169-10,000 nM) was added at 2× of the final concentration to HSC culture and HSC culture plates were incubated in a humidity-controlled incubator at […], 5% CO2. After 12 days, the absolute viable cell counts from each well were determined. HSC were then stained in staining buffer composed of Hank's balanced salt solution with 2% fetal bovine serum and 2 mM EDTA (all Life Technologies) at 4° C. for 1 hour with anti-CD90 APC, anti-CD34 PerCP, anti-CD38 FITC, CD45RA PE-Cy7 and anti-CD133 PE antibodies (all BD Biosciences, San Jose, Calif., USA). HSC were washed with staining buffer and HSC were analyzed by multicolor phenotype flow cytometry. The percentages of CD34^+ cells were determined as percentage of total population. Absolute counts of each population were calculated from the total number of viable cells multiplied by the percentage of each population. The EC50 value for the frequency of CD34+ cells, defined as the compound concentration with half maximal response on the dose response curve, was calculated using Prism 7 (GraphPad Software, La Jolla, Calif., USA).

hAhR = biological target: T1, hAhR (Homo sapiens, UniProt P35869); test: AhR antagonist DRE-luciferase reporter transcriptional assay (TCDD-induced) in HEPG2 DRE-Luc cells; type: cell-based; conditions: relative IC50, HEPG2 DRE-Luc cells, 3 nM TCDD, 24 h incubation; read-out: IC50 hAhR (antagonist mode)
T1 construct: endogenous in cells; host or cells: HEPG2 cells with stably integrated Cignal XRE (DRE) luciferase reporter
T1 sequence (P35869 11-848): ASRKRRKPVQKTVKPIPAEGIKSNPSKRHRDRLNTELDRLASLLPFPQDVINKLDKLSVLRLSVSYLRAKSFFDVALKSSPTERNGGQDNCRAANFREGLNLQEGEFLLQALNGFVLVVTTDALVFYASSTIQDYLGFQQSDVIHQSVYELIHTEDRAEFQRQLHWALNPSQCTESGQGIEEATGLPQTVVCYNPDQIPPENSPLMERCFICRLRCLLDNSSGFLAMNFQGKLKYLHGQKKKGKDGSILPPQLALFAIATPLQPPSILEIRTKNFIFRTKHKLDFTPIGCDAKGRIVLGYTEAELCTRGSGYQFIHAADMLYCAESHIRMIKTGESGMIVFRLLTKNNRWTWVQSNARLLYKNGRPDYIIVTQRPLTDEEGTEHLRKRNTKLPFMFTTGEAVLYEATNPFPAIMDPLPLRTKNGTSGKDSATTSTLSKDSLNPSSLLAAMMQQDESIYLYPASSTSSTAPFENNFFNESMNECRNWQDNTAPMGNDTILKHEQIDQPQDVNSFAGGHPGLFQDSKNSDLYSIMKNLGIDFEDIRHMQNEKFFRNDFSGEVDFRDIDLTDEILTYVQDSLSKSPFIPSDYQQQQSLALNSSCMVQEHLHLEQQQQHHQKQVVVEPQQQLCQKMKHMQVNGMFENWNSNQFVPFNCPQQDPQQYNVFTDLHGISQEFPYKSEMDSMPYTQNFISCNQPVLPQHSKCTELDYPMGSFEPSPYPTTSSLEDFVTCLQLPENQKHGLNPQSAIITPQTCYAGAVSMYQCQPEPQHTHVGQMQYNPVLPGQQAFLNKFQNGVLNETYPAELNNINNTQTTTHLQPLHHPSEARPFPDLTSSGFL
Protocol: The ability of compounds of formula (I) to antagonize AhR was tested as follow. HEPG2 and HEPA1C1C7 cells were maintained in MEM and αMEM without nucleosides supplemented with 10% heat inactivated FBS respectively. Stably integrated DRE-luciferase cell lines were generated by transducing the both cell lines with Cignal XRE luciferase reporter (Qiagen) lentiviral particles according to the manufacturer protocol. For both cell lines, stably integrated reporter cell lines were selected for the presence of 2 μg/mL puromycin. Following selection of stably integrated cell line pools, clonal cell lines were isolated by limiting dilution in 96-well plates. […]
To determine AhR antagonist activity of compound of formula (I), the compounds were added in a semi-log dose response using a D300e Digital Dispenser (Tecan) followed normalization with vehicle (DMSO). […] Firefly luciferase activity was measured immediately following the addition of 50 μL Luciferase Assay Reagent (Promega). The percent maximal activity for each point was determined using the following equation: (RLUsample−RLUvehicle−TCDD)/(RLUvehicle+TCDD RLUvehicle−TCDD)*100. The relative IC50, defined as the compound concentration required to reduce the TCDD induced response between the top and bottom plateau of each individual dose response curve by half, for each compound was determined using Prism7 (GraphPad Software).

[2] = compound concentration 3,333 nM

Cc1cc(-c2ncc3nc(C(F)(F)F)ccc3n2)ccc1N1CCOc2cnn(C)c2C1=O [Example 001, 1-methyl-7-(2-methyl-4-(6-(trifluoromethyl)pyrido[3,2-d]pyrimidin-2-yl)phenyl)-6,7-dihydro-1H-pyrazolo[3,4-f][1,4]oxazepin-8(5H)-one]
CD34+ cell counts, fold expansion [1, 2]: 2.4 fold
frequency of CD34+ HSC, fold increase [1, 2]: 3.1 fold

Cc1cc(-c2ncc3cc(C(F)(F)F)ccc3n2)ccc1N1CCOc2cn[nH]c2C1=O [Example 033, 7-(2-methyl-4-(6-(trifluoromethyl)quinazolin-2-yl)phenyl)-6,7-dihydro-1H-pyrazolo[3,4-f][1,4]oxazepin-8(5H)-one]
IC50 (hAhR): < 0.2 µM

Cc1cc(-c2ncc3cc(C(F)(F)F)ccc3n2)ccc1N1CCOc2cnn(CCO)c2C1=O [Example 034, 1-(2-hydroxyethyl)-7-(2-methyl-4-(6-(trifluoromethyl)quinazolin-2-yl)phenyl)-6,7-dihydro-1H-pyrazolo[3,4-f][1,4]oxazepin-8(5H)-one]
IC50 (hAhR): 0.2 to 0.5 µM

Cc1cc(-c2ncc3cc(C(F)(F)F)ccc3n2)ccc1N1CCn2ncc(C)c2C1=O [Example 002, 3-methyl-5-(2-methyl-4-(6-(trifluoromethyl)quinazolin-2-yl)phenyl)-6,7-dihydropyrazolo[1,5-a]pyrazin-4(5H)-one]
frequency of CD34+ HSC, fold increase ([1]; compound concentration 1,111 nM): 3.6 fold
CD34+ cell counts, fold expansion ([1]; compound concentration 10,000 nM): 4.0 fold
